{"source": "patent US6124308A", "about": "“Optically active phenyl pyrimidine derivatives as analgesic agent” (priority 1995, dated 2000)", "key": {"[1]": {"system": "striatal dopamine in MPTP injected C57B1/6 mice", "assay": "MPTP induced neurotoxic model, striatal dopamine levels", "assay_type": "in vivo, mouse", "procedure": "Six-week old male C57B1/6 mice (Japan SLC Co., Hamamatu) were housed ten per case in a temperature-controlled room under a 12-hours light/12-hours dark cycle with free access to food and water.\nMice received i.p. injections of the R(-) enantiomer and the S(+) enantiomer (30 mg/kg) in olive oil starting 12 hours before MPTP injection and every 12 hours for the next 5-injections. Control mice received olive oil only.\nMice receive s.c. injection of MPTP-HCl (40 mg of free base per kg; Research Biochemicals) in saline. Control mice received saline only.\nHPLC with electrochemical detection was used to measure striatal levels of dopamine (J.C. Garcia': Journal of Chromatography B. 656 (1994) 77-80).\nSeven days after the MPTP injection, mice ([…]) were killed and striata were dissected out, immediately frozen, and stored at -80° C. until analysis. On the day of the assay, tissue samples were sonicated in 10 vol(wt/vol) of 0.1M perchloric acid /1.9 mM sodium hydrogen sulfite containing 1.6μg/ml 3,4-dihydroxybenzylamine hydrobromide(Sigma) as an internal standard. After centrifugation (2,800× g for 10 min at room temperature) and filtration (0.5 μm; Millipore membrane filter), 10 μl of supernatant was injected onto an Inertsil ODS3 column (4.6×250 mm; GL Science, Tokyo). The mobile phase consisted of 88% 115 mM NaH2 PO4 /0.178 mM Na2 EDTA /0.92 mM 1-octanesulfonic acid (pH=2.6) solution and 12% ethanol. F low rate was 1.0 ml/min. Peaks were detected by a Shimazu electrochemical detector LECD-6A(700 mV)."}, "[2]": {"system": "established PGE2-induced acute hyperalgesia", "assay": "Effects on established PGE2-induced acute hyperalgesia (paw pressure)", "assay_type": "in vivo", "conditions": "Rattus norvegicus, po, 2 h after PGE2 (100 ng); read-out: analgesia ED50 and 95% confidence limits", "procedure": "Effects on established PGE2 -induced acute hyperalgesia\nThe R(-)enantiomer was given orally 2 h after subplantar injection of PGE2 (100 ng) when the hyperalgesia was established. Reaction time to paw pressure was measured 3 h after the PGE2 administration."}, "[3]": {"assay": "Half-life in male rats", "assay_type": "in vivo, rat", "conditions": "rat, in vivo, read-out: half-life (t1/2) (converted)"}, "[4]": {"system": "native channels in cultured rat striatal neurones (Na+ currents)", "assay": "Native sodium channels in cultured rat striatal neurones, whole-cell recording", "assay_type": "cell-based", "text": "The action of the R(-)enantiomer on native channels in cultured rat striatal neurones was studied using whole-cell recording techniques."}, "[5]": {"system": "hind-limb extension (maximal electroshock seizure)", "assay": "Maximal electroshock test, rats, i.p., duration of action", "assay_type": "in vivo, rat", "conditions": "for ED50: Rattus norvegicus, ip, read-out: ED50 (95% limits)"}, "[6]": {"system": "maximal electroshock seizure", "assay": "Maximal electroshock test, mice, different routes of administration", "assay_type": "in vivo, mouse", "conditions": "for ED50: Mus musculus, mice, 1 hour, read-out: ED50 (95% limits)"}, "[7]": {"system": "veratrine-evoked glutamate release from rat brain slices", "assay": "Inhibition of veratrine-evoked glutamate release", "assay_type": "cell-based", "conditions": "at 10 μM"}, "[8]": {"system": "PGE2-induced acute hyperalgesia", "assay": "Effects on the development of PGE2-induced acute hyperalgesia (paw pressure)", "assay_type": "in vivo, rat", "conditions": "p.o., 1 h before PGE2 (100 ng), n=5", "procedure": "Effects on the development of PGE2 -induced acute hyperalgesia\nReaction times to paw pressure were measured 3 h after PGE2 injection. Ataxia was scored at the same time by observation of the rats placed in an arena."}, "[9]": {"system": "whole-cell sodium currents in cultured rat hippocampal neurones", "assay": "Whole-cell sodium currents in cultured embryonic rat hippocampal neurones, patch-clamp", "assay_type": "cell-based", "excerpt": "(b) Cultured embryonic rat hippocampal neurones\nSodium currents were elicited by the application of 20 msec dipolarisng pulses, thereby lowering membrane potential to -10 mV from a holding potential of -60 mV."}, "[10]": {"target": "T1, rat type IIA sodium channels (Rattus norvegicus, UniProt P04775)", "T1 construct": "no beta subunit mentioned", "T1 sequence (P04775 whole entry)": "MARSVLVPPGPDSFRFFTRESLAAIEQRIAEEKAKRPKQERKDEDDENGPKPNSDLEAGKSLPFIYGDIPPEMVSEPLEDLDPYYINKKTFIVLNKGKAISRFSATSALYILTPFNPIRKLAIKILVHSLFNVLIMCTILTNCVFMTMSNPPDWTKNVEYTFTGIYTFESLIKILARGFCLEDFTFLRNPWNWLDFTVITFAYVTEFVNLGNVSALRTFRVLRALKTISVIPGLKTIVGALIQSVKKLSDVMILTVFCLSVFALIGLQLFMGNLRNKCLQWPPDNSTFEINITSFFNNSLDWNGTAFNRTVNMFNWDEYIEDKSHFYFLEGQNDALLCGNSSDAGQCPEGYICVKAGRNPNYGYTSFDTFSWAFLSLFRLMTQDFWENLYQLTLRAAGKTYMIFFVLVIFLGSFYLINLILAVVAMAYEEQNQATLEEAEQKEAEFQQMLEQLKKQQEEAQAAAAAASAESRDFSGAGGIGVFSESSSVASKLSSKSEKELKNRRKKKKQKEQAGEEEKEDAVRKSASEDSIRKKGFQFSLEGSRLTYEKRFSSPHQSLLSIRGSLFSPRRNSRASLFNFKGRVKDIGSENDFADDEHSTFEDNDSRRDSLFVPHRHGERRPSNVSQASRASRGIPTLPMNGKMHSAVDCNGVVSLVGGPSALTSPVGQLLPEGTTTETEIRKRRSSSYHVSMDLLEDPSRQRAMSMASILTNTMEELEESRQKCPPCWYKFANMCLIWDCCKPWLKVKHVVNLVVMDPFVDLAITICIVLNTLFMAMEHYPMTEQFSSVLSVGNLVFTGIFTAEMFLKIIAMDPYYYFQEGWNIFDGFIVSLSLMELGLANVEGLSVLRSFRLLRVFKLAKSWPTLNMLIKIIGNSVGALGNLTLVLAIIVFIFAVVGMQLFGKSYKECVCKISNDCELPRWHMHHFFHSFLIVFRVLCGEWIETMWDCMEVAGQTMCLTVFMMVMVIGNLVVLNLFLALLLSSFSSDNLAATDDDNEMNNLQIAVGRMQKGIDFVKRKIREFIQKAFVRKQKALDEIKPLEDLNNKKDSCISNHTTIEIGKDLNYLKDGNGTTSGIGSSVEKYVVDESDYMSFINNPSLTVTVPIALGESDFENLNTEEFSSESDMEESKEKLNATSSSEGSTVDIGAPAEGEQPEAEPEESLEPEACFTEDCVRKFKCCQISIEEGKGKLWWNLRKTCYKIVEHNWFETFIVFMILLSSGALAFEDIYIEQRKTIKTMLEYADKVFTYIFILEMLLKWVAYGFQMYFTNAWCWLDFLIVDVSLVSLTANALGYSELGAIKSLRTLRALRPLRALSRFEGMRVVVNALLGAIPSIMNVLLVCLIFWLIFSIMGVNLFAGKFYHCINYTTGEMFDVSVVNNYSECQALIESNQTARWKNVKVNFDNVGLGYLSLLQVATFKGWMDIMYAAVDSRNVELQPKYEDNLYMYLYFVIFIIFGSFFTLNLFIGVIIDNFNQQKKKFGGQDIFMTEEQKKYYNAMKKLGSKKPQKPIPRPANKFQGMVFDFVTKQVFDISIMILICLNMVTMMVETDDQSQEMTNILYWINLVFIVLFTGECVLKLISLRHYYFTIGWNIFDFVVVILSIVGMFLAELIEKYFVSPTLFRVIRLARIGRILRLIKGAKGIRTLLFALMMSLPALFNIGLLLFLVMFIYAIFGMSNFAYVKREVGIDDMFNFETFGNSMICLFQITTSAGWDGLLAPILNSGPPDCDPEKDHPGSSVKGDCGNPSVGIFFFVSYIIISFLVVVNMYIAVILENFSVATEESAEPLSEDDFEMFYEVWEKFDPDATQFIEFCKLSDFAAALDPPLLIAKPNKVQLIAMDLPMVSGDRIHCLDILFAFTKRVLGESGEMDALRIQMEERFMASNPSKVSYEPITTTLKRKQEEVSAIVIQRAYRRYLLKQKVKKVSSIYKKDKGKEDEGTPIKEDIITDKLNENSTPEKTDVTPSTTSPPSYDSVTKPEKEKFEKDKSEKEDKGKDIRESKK", "assay": "Recombinant rat type IIA sodium channels in chinese hamster ovary cells, whole-cell recording", "assay_type": "cell-based", "conditions": "for IC50: read-out: IC50 (inhibition of Na+ currents)", "text": "The IC50 's at two different holding potentials (Vh) were as follows: […]"}, "[11]": {"target": "T2, rat liver DHFR (Rattus norvegicus, UniProt Q920D2)", "T2 construct": "rat liver DHFR; from tissue; host or cells: rat liver", "T2 sequence (Q920D2 1-187)": "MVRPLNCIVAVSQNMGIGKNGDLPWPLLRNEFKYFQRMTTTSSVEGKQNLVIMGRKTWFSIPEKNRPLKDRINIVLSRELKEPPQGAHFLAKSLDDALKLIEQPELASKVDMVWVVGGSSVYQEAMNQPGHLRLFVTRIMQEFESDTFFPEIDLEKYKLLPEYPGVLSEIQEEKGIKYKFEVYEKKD", "assay": "Activity against dihydrofolate reductase (DHFR), spectrophotometric assay", "assay_type": "biochemical"}, "[12]": {"system": "electrical activity of the external oblique muscle (egg albumin sensitised rats)", "assay": "Irritable bowel syndrome model: colorectal distension in egg albumin sensitised rats", "assay_type": "in vivo, rat", "conditions": "10 mg/kg p.o., 60 minutes before pressure response curve", "procedure": "Male Listar hooded rats weight range 100-150 g were used.\nThe rats were sensitised by dosing ip (1 ml per rat) with a solution containing egg albumin, (10 ug/ml) pertusssis vaccine (1 mg/ml) and aluminium hydroxide (10 mg/ml). Control animals received saline.\nSeven days later the rats were anaesthetised using isofurane and the external oblique muscle exposed. Two nichrome wires were implanted into the muscles and the wires exteriorised to the back of the neck, the skin was sutured and the animals were allowed to recover.\nSix days later the animals were fasted overnight. On the following day the animals were anaesthetised and the colorectum washed out using saline. A 4 cm long latex balloon tied to a portex cannula was connected to an inflation device, and the nichrome electrodes at the back of the neck were connected to head stage.\nThe electrical activity of the external oblique muscle was recorded by a data capture system (`spike2`) which calculated the number of electrical spikes. Sequential pressure response curves (10-100 mmHg) in sensitised and the control animals were constructed. The balloon was inflated for 1 min at each pressure, followed by a rest period of 5 min.\nThe mean number of spikes at each pressure was calculated for the control animals, sensitised animals and sensitised animals treated with the R(-) enantiomer. […]"}}, "note": "Like-named read-outs stand apart in the source and are kept apart here.", "data": [{"smiles": "Nc1nc(N)c(-c2cccc(Cl)c2Cl)c(CF)n1", "note": "[R(-)enantiomer, R(-)-2,4-diamino-5-(2,3-dichlorophenyl)-6-fluoromethyl pyrimidine]", "values": [{"measurement": "% protection", "setting": "[1]; 30 mg/kg i.p. 6 times, MPTP 40 mg/kg s.c.", "result": 81.0, "unit": "%"}, {"measurement": "Dopamine content in the striatum", "setting": "[1]; 30 mg/kg i.p. 6 times, MPTP 40 mg/kg s.c., day 7", "result": "12.45 ± 1.18", "unit": "μg/g wet tissue"}, {"measurement": "% mortality", "setting": "[1]; 30 mg/kg i.p., day -1 to 7", "result": 0, "unit": "%"}, {"measurement": "ED50", "setting": "[2]", "result": 3.4, "unit": "mg/kg"}, {"measurement": "half-life", "setting": "[3]", "result": 5.4, "unit": "h"}, {"measurement": "inhibition of Na+ currents", "setting": "[4]", "result": "concentration- and voltage-dependent inhibition of Na^+ currents"}, {"measurement": "inhibition by 10-30 μM on hyperpolarising the cells", "setting": "[4]; 10-30 μM, Vh = -120 mV", "result": "virtually eliminated"}, {"measurement": "IC50", "setting": "[4]; Rattus norvegicus, holding potential (Vh) of 60 mV, read-out: IC50 (inhibition of Na+ currents)", "result": "~8", "unit": "µM"}, {"measurement": "potency at Vh = -90 mV compared with IC50 at 60 mV", "setting": "[4]; Vh = -90 mV", "result": "much lower potency"}, {"measurement": "ED50", "setting": "[5]; 8 h, i.p., rats, 8 hours", "result": 5.9, "unit": "mg/kg"}, {"measurement": "ED50", "setting": "[5]; 24 h, i.p., rats, 24 hours", "result": 12.9, "unit": "mg/kg"}, {"measurement": "times more active than its S(=)enantiomer", "setting": "[5]; anticonvulsant, rats, i.p.", "result": "15-20 times"}, {"measurement": "times more active than lamotrigine", "setting": "[5]; anticonvulsant, rats, i.p.", "result": "2-3 times"}, {"measurement": "ED50 at 2 hrs (isethionate salt versus base)", "setting": "[5]; i.p., 2 hrs, calculated as the base, p<0.05, listed as R(-) enantiomer base, 120 min", "result": 2.5, "unit": "mg/kg"}, {"measurement": "ED50 (95% limits)", "setting": "[5]; i.p., rats, 0.5 hours, 30 min", "result": "1.3 (0.9-1.9) mg/kg"}, {"measurement": "ED50 (95% limits)", "setting": "[5]; i.p., rats, 1 hour, 60 min", "result": "1.0 (0.7-1.5) mg/kg"}, {"measurement": "ED50 (95% limits)", "setting": "[5]; i.p., rats, 2 hours, 120 min", "result": "1.2 (0.8-1.7) mg/kg"}, {"measurement": "ED50 (95% limits)", "setting": "[5]; i.p., rats, 4 hours, 240 min", "result": "2.3 (1.6-3.4) mg/kg"}, {"measurement": "duration of action", "setting": "[5]; maximal electroshock", "result": "long duration of action"}, {"measurement": "ED50", "setting": "[6]; ip, i.p.", "result": 1.3, "unit": "mg/kg"}, {"measurement": "ED50", "setting": "[6]; po, p.o.", "result": 1.2, "unit": "mg/kg"}, {"measurement": "ED50", "setting": "[6]; sc, s.c.", "result": 0.96, "unit": "mg/kg"}, {"measurement": "times more potent than lamotrigine in the maximal electroshock test", "setting": "[6]; in rats and mice", "result": "2-3 times"}, {"measurement": "activity by the various routes tested", "setting": "[6]; maximal electroshock, rats and mice", "result": "approximately equiactive by the various routes tested"}, {"measurement": "inhibition of veratrine-evoked glutamate release", "setting": "[7]", "result": 64, "unit": "%"}, {"measurement": "Analgesia ED50 (95% limits)", "setting": "[8]", "result": "2.5 (2.2-2.9) mg/kg"}, {"measurement": "IC50", "setting": "[9]; 20 msec pulses to -10 mV from holding potential -60 mV, read-out: IC50 (reduction of peak sodium current)", "result": 4, "unit": "µM"}, {"measurement": "reduction of peak sodium current", "setting": "[9]; holding potential -60 mV", "result": "concentration-dependent reduction of peak sodium current"}, {"measurement": "inhibition of Na+ currents", "setting": "[10]; R(-)enantiomer 1-500 μM", "result": "inhibition of Na^+ currents in a concentration-dependent and voltage-dependent manner"}, {"measurement": "IC50", "setting": "[10]; Vh = -60 mV", "result": 18, "unit": "µM"}, {"measurement": "IC50", "setting": "[10]; Vh = -90 mV", "result": 160, "unit": "µM"}, {"measurement": "inhibition at 100 µM", "setting": "[11]", "result": 25, "unit": "%"}, {"measurement": "reversal of the changes induced by egg albumin", "setting": "[12]", "result": "complete reversal"}]}]}
